Holding throughout (type): physicochemical
The nature of data set [1]: Intrinsic dissolution rate (IDR) in 0.05M phosphate buffer pH 6.8.
Data set [2] in a line: Dissolution (drug release) in 0.05 M phosphate buffer pH 6.8.
Data set [3] can be described thus: Pharmaceutical loading (relative percentage of diclofenac by mass). From the text: It has been appreciated that the pharmaceutical loading in the TCPs may be less than that of a commercially available pharmaceutical sodium salt due to the mass of the organic linkers. Provided below is Table I showing a summary for the relative percentages in some of specific diclofenac TCPs. For example, the percent of diclofenac in sodium diclofenac is 93%, whereas the TCPs had loading ranging from 42-70%. The percentage of metal within the TCPs by mass ranged from 2.6-7.9% and the percent of linker by mass ranged from 22-41%. The TCP with EtOH in the name were synthesized in EtOH, all others were synthesized in MeOH. However, it is not strictly required that TCPs be prepared in MeOH and TCPs may be prepared in EtOH instead, or other solvents such as but not limited to: water, acetonitrile, dimethyl sulfoxide, nitromethane, isopropyl alcohol, dimethylformamide or a mixture thereof.

Each structure is given as a SMILES string.

Regarding `O=C(O)Cc1ccccc1Nc1c(Cl)cccc1Cl` [sodium diclofenac], the “intrinsic dissolution rate (IDR)” value in data set [1] was determined as 1161±0.216 μg cm^−2 min^−1. In addition, the diclofenac released in data set [2] (after 1 h) was found to be 100%. For the same molecule, in data set [3], the “percent of diclofenac (loading)” value was found to be 93%.

For the molecule `CC(C)Cc1ccc(C(C)C(=O)O)cc1.[Na]` (stereo not shown) [sodium ibuprofen], the ibuprofen released in data set [2] (after 5 min) is listed as 100%.

(Values after patent US20240342291A1, “Therapeutic Coordination Polymers Containing Pharmaceuticals for Drug Release Applications” (UNIVERSITY OF WINDSOR, priority 2021, published 2024).)
